From patent publication US20240300946A1, “EGFR INHIBITORS” (Blueprint Medicines Corporation, priority 2021, published 2024)
Like-named read-outs stand apart in the source and are kept apart here.

Key:
[1] = tested on: phosphorylation of EGFR in NCI-H1975 cell line that harbors the EGFR L858R T790 M mutations; assay: NCI-H1975 pEGFR AlphaLISA assay; type: cell-based; settings: p-EGFR (Tyr1068), 4-5 hours incubation, read-out: Ext pEGFR H1975 GMean IC50 (nM) Protocol: @ Pharmaron AlphaLISA (Num)
Description: Inhibitory effects of the compounds of the disclosure were evaluated in cellular assays that measure level of intracellular phosphorylation of EGFR in NCI-H1975 cell line that harbors the EGFR L858R T790 M mutations (ATCC, CRL-5908) using AlphaLISA sureFire ultra p-EGFR (Tyr1068) assay kit (PerkinElmer, ALSU-PEGFR-A50K). The NCI-H1975 cells were seeded at 12.5K/well in 22 μL into 384 well opti plate (PerkinElmer, 6007299) and adhering overnight at 37° C./5% CO2. On the next day, the test compounds and DMSO control were added into H1975 cell plate followed by incubation at 37° C./5% CO2 for 4-5 hours. The cells were then spin down in the 384-well plate and lysed with 10 μL of 1× AlphaLISA lysis buffer followed by shaking at 600 rpm for 10 minutes at room temperature. After that, 5 μL of an acceptor bead mix was added to each well followed by incubation at room temperature for 1.5-2 h in dark. Then 5 μL of a donor bead mix was added to each well followed by overnight incubation at room temperature in dark. On the next day, the plate was read at a compatible plate reader to obtain pEGFR signal. Percent of pEGFR inhibition was plotted against log concentration of compounds to generate IC50 values.

[2] = target: T1, EGFR (L858R T790 M C797S) (Homo sapiens, UniProt P00533, C797S/L858R/T790M); assay: Biochemical EGFR inhibition assay (Caliper mobility shift), LRTMCS mutant at 1 mM ATP; settings: read-out: LRTMCS (PH) IC50 (nM) @ 1 mM ATP (Num)
T1 construct: purchased SignalChem E10-122VG
Description: Inhibitory effects of the compounds of the disclosure were measured in biochemical assays that measure the phosphorylation activity of EGFR enzyme phosphorylates 2.5 micromolar 5-FAM-[…]-CONH2 peptide substrate (FL-Peptide 22, PerkinElmer, 760366) in the presence of adenosine-5′-triphosphate (ATP) and varying concentrations of the test compound in 100 mM 2-[4-(2-hydroxyethyl)piperazin-1-yl]ethanesulfonic acid (HEPES), pH 7.5, 10 mM MgCl2, 0.015% Brij-35, 1 mM dithiothreitol (DTT), 1.0% dimethylsulfoxide (DMSO). Assays were performed at 1.0 mM ATP or at ATP Km of the EGFR enzymes. Reactions proceeded until between 10% to 20% total peptides were phosphorylated at room temperature (25° C.) and were terminated with 35 mM 2,2′,2″,2′″-(ethane-1,2-diyldinitrilo)tetraacetic acid (EDTA). Product was detected using the Caliper mobility shift detection method where the phosphorylated peptide (product) and substrate were electrophoretically separated and measured. Percent activity was plotted against log concentration of compound and points to generate an apparent IC50. The following enzyme forms of EGFR were examples that were used in these assays: • EGFR WT (SignalChem, E10-112G) • EGFR (L858R T790 M C797S) (SignalChem, E10-122VG) • EGFR (d746-750) T790 M C797S (SignalChem, E10-122UG) • EGFR L858R (SignalChem, E10-122BG) • EGFR (d746-750) (SignalChem, E10-122JG)

[3] = Homo sapiens, NCI-H1975, NCI-H1975 cells

T1 sequence (P00533 25-1210 T790M/C797S/L858R): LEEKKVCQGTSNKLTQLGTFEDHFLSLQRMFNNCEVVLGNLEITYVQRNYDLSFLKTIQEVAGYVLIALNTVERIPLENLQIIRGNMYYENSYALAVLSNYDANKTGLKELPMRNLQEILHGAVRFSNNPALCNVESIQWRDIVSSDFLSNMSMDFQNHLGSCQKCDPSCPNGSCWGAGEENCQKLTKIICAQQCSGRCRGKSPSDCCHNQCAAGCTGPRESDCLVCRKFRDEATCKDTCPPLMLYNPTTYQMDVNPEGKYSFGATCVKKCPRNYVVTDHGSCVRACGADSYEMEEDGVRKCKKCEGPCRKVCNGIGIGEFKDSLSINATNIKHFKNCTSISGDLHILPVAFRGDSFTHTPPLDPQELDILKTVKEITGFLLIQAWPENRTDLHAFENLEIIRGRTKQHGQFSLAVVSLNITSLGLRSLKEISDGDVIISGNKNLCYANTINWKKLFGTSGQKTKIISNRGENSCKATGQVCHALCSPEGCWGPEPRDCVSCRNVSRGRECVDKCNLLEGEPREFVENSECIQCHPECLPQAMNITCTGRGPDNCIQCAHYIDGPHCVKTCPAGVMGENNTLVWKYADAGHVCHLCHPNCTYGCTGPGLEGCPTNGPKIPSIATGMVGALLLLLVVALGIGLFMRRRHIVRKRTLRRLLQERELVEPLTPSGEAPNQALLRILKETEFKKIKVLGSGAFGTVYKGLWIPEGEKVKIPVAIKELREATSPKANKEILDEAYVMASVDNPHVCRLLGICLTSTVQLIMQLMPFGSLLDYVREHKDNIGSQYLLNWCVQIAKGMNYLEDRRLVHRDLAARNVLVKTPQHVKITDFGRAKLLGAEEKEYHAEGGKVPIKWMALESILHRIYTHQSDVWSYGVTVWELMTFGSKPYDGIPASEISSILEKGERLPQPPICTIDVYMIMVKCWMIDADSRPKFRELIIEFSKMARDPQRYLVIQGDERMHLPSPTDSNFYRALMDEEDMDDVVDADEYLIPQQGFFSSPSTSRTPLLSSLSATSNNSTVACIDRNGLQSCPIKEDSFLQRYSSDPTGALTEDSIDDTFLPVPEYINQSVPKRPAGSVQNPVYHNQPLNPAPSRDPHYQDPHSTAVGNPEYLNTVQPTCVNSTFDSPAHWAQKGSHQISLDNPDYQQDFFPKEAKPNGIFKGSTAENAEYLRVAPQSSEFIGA

| Compound | IC50 [1, 3] | IC50 [2] | IC50 ([1]; NCI-H1975 cells) |
| --- | --- | --- | --- |
| Cc1ncc(-c2nccc(Nc3cc4c(C(C)C)ccc(N5C[C@H](CS(C)(=O)=O)[C@H]5C)c4cn3)n2)s1 (single isomer, unassigned) [Example 20, 5-isopropyl-8-(2R,3S)-2-methyl-3-((methylsulfonyl)methyl)azetidin-1-yl)-N-(2-(2-methylthiazol-5-yl)pyrimidin-4-yl)isoquinolin-3-amine or 5-isopropyl-8-((2S,3R)-2-methyl-3-((methylsulfonyl)methyl)azetidin-1-yl)-N-(2-(2-methylthiazol-5-yl)pyrimidin-4-yl)isoquinolin-3-amine] | – | ≤ 15 nM | < 10 nM |
| Cc1ncc(-c2nccc(Nc3cc4c(C(C)C)ccc(N5C[C@H](CS(C)(=O)=O)[C@H]5C)c4cn3)n2)s1 (single isomer, unassigned) [Example 21, 5-isopropyl-8-((2S,3S)-2-methyl-3-((methylsulfonyl)methyl)azetidin-1-yl)-N-(2-(2-methylthiazol-5-yl)pyrimidin-4-yl)isoquinolin-3-amine or 5-isopropyl-8-((2S,3R)-2-menthyl-3-((methylsulfonyl)methyl)azetidin-1-yl)-N-(2-(2-methylthiazol-5-yl)pyrimidin-4-yl)isoquinolin-3-amine] | – | > 100 nM | > 50 nM |
| CC(C)c1ccc(N2C[C@H](CS(C)(=O)=O)[C@H]2C)c2cnc(Nc3ccnc(-c4cccnc4)n3)cc12 (single isomer, unassigned) [Example 22, 5-isopropyl-8-((2R,3S)-2-methyl-3-((methylsulfonyl)methyl)azetidin-1-yl)-N-(2-(pyridin-3-yl)pyrimidin-4-yl)isoquinolin-3-amine or 5-isopropyl-8-((2S,3R)-2 methyl-3-((methylsulfonyl)methyl)azetidin-1-yl)-N-(2-(pyridin-3-yl)pyridin-4-yl) isoquinolin-3-amine] | < 10 nM | ≤ 15 nM | – |
| CC(C)c1cnc(N2CC(CS(C)(=O)=O)C2)c2cnc(Nc3ccnc([C@]4(C)C[C@@H](O)C4)n3)cc12 (single isomer, unassigned) [Example 24, (1r,3r)-3-(4-((5-isopropyl-8-(3-((methylsulfonyl)methyl)azetidin-1-yl)-2,7-naphthyridin-3-yl)amino)pyrimidin-2-yl)-3-methylcyclobutan-1-ol or (1s,3s)-3-(4-((5-isopropyl-8-(3-((methylsulfonyl)methyl)azetidin-1-yl)-2,7-naphthyridin-3-yl)amino)pyrimidin-2-yl)-3-methylcyclobutan-1-ol] | > 50 nM | 30 to 100 nM | – |
| CC(C)c1cnc(N2CC(CS(C)(=O)=O)C2)c2cnc(Nc3ccnc([C@]4(C)C[C@@H](O)C4)n3)cc12 (single isomer, unassigned) [Example 25, (1r,3r)-3-(4-((5-isopropyl-8-(3-((methylsulfonyl)methyl)azetidin-1-yl)-2,7-naphthyridin-3-yl)amino)pyrimidin-2-yl)-3-methylcyclobutan-1-ol or (1s,3s)-3-(4-((5-isopropyl-8-(3-((methylsulfonyl)methyl)azetidin-1-yl)-2,7-naphthyridin-3-yl)amino)pyrimidin-2-yl)-3-methylcyclobutan-1-ol] | – | > 100 nM | > 50 nM |
| Cc1ncc(-c2nccc(Nc3cc4c(C(C)C)cnc(N5CC(CS(C)(=O)=O)C5)c4cn3)n2)s1 [Example 1, 5-isopropyl-8-(3-((methylsulfonyl)methyl)azetidin-1-yl)-N-(2-(2-methylthiazol-5-yl)pyrimidin-4-yl)-2,7-naphthyridin-3-amine] | 10 to 20 nM | ≤ 15 nM | – |
| CC(C)c1cnc(N2CC(CS(C)(=O)=O)C2)c2cnc(Nc3ccnc(C4(C)CC(=O)C4)n3)cc12 [Example 3, 3-(4-((5-isopropyl-8-(3-((methylsulfonyl)methyl)azetidin-1-yl)-2,7-naphthyridin-3-yl)amino)pyrimidin-2-yl)-3-methylcyclobutan-1-one] | > 50 nM | > 100 nM | – |

Further lines, results first:

| IC50 [1, 3] | IC50 [2] | IC50 ([1]; NCI-H1975 cells) | Compound |
| --- | --- | --- | --- |
| > 50 nM | > 100 nM | – | CC(C)c1ccc(N2CC(CS(C)(=O)=O)C2)c2cnc(Nc3ccnc([C@H]4C[C@@H]4C(F)F)n3)cc12 (single isomer, unassigned) [Example 16, N-(2-((1S,2S)-2-(difluoromethyl)cyclopropyl)pyrimidin-4-yl)-5-isopropyl-8-(3-((methylsulfonyl)methyl)azetidin-1-yl)isoquinolin-3-amine or N-(2-((1R,2R)-2-(difluoromethyl)cyclopropyl)pyrimidin-4-yl)-5-isopropyl-8-(3-((methylsulfonyl)methyl)azetidin-1-yl)isoquinolin-3-amine] |
| – | > 100 nM | > 50 nM | CC(C)c1ccc(N2CC(CS(C)(=O)=O)C2)c2cnc(Nc3ccnc([C@H]4C[C@@H]4C(F)F)n3)cc12 (single isomer, unassigned) [Example 17, N-(2-((1S,2S)-2-(difluoromethyl)cyclopropyl)pyrimidin-4-yl)-5-isopropyl-8-(3-((methylsulfonyl)methyl)azetidin-1-yl)isoquinolin-3-amine or N-(2-((1R,2R)-2-(difluoromethyl)cyclopropyl)pyrimidin-4-yl)-5-isopropyl-8-(3-((methylsulfonyl)methyl)azetidin-1-yl)isoquinolin-3-amine] |
| > 50 nM | ≤ 15 nM | – | C[C@H](CO)c1ccc(N2CC(CS(C)(=O)=O)C2)c2cnc(Nc3ccnc(-c4cnn(C)c4)n3)cc12 (single isomer, unassigned) [Example 18, (S)-2-(3-((2-(1-methyl-1H-pyrazol-4-yl)pyrimidin-4-yl)amino)-8-(3-((methylsulfonyl)methyl)azetidin-1-yl)isoquinolin-5-yl)propan-1-ol or (R)-2-(3-((2-(1-methyl-1H-pyrazol-4-yl)pyrimidin-4-yl)amino)-8-(3-((methylsulfonyl)methyl)azetidin-1-yl)isoquinolin-5-yl)propan-1-ol] |
| – | ≤ 15 nM | > 50 nM | C[C@H](CO)c1ccc(N2CC(CS(C)(=O)=O)C2)c2cnc(Nc3ccnc(-c4cnn(C)c4)n3)cc12 (single isomer, unassigned) [Example 19, (S)-2-(3-((2-(1-methyl-1H-pyrazol-4-yl)pyrimidin-4-yl)amino)-8-(3-((methylsulfonyl)methyl)azetidin-1-yl)isoquinolin-5-yl)propan-1-ol or (R)-2-(3-((2-(1-methyl-1H-pyrazol-4-yl)pyrimidin-4-yl)amino)-8-(3-((methylsulfonyl)methyl)azetidin-1-yl)isoquinolin-5-yl)propan-1-ol] |
| 10 to 20 nM | ≤ 15 nM | – | CC(C)c1ccc(N2C[C@H](CS(C)(=O)=O)[C@H]2C)c2cnc(Nc3ccnc(-c4cnn(C)c4)n3)cc12 (single isomer, unassigned) [Example 23, 5-isopropyl-N-(2-(1-methyl-1H-pyrazol-4-yl)pyrmidin-4-yl)-8-((2S,3S)-2-methyl-3-((methylsulfonyl)methy)azetidin-1-yl)isoquinolin-3-amine or 5-isopropyl-N-(2-(1-methyl-1H-pyrazol-4-yl)pyrimidin-4-yl)-8-((2S,3R)-2-methyl-3-((methylsulfonyl)methyl)azetidin-1-yl)isoquinolin-3-amine] |
| 10 to 20 nM | ≤ 15 nM | – | CC(C)c1cnc(N2CC(CS(C)(=O)=O)C2)c2cnc(Nc3ccnc(-c4cnn(C)c4)n3)cc12 [Example 2, 5-isopropyl-N-(2-(1-methyl-1H-pyrazol-4-yl)pyrimidin-4-yl)-8-(3-((methylsulfonyl)methyl)azetidin-1-yl)-2,7-naphthyridin-3-amine] |
| > 50 nM | 15 to 20 nM | – | CC(C)c1cnc(N2CC(CS(C)(=O)=O)C2)c2cnc(Nc3ccnc(C45CC(CO)(C4)C5)n3)cc12 [Example 4, (3-(4-((5-isopropyl-8-(3-((methylsulfonyl)methyl)azetidin-1-yl)-2,7-naphthyridin-3-yl)amino)pyrimidin-2-yl)bicyclo[1.1.1]pentan-1-yl)methanol] |
